# Source: PMC4109680, “Identification and Preclinical Pharmacology of the γ-Secretase Modulator BMS-869780” (International Journal of Alzheimer's Disease, 2014)
# Tested on: brain Aβ1-42 and Aβ1-40
# Assay: Rat 4-day repeat dose, residual brain Aβ by ELISA and immunodepletion
# Type: in vivo
# Experimental: Figure 7 BMS-869780 dose response and evaluation of residual Aβ levels in rat brain. (a) Groups of rats received intraperitoneal (IP) injections of vehicle or BMS-869780 at doses of 100, 30, 10, 3, 1, and 0.3 mg/kg. Additional rats were dosed with GSI BMS-698861 at 30 mg/kg as a positive control for Aβ-lowering. Group sizes were seven rats for each dose of BMS-869780 and 14 rats for vehicle and GSI dose groups. Brain and plasma were harvested 5 hours after dosing. Brain Aβ1-42 (green), brain Aβ1-40 (blue), brain Aβ1-x (black), and plasma Aβ1-40 (red) were determined. Values are expressed as % relative to vehicle group mean. Whiskers represent standard error. ⊗Aβ1-x was not determined in the groups dosed at 3, 1, and 0.3 mg/kg. (b) Brain Aβ1-40 was plotted against brain Aβ1-42 for each rat dosed with BMS-869780 (black ▼) and for each rat dosed with vehicle (grey ●). Values are expressed as % relative to vehicle group mean. Whiskers represent standard error. […] The respective 95% confidence intervals were 618–1053 nM, 704–1264 nM, and 44–158 nM. (d) Rats were dosed once daily with BMS-869780 for 4 days at 10 and 100 mg/kg or vehicle, plasma, and brain samples were taken 5 hours after the last dose, and immunodepletion of brain extracts was carried out prior to Aβ1-42 ELISA assays. […] After immunodepletion, Aβ1-42 was assayed by ELISA. (e) Same as described in (d), except that Aβ1-40 ELISA was carried out following the immunodepletion.
# For immunodepletion of rat brain Aβ, solid phase extracts were pooled within treatment groups. The pools were divided into equal aliquots and incubated with or without monoclonals 565, TSD, 4G8, or 6E10 (10 μg) at 4°C overnight. Protein G beads (50 μL; EZview, Sigma) were added, and incubation was continued with agitation for 1 hour. The beads were removed by centrifugation, and Aβ1-40 and Aβ1-42 in the unbound fraction were quantified by ELISA, as described above.
# All experimental procedures with animals followed National Institutes of Health guidelines and were authorized by and in compliance with policies of the Bristol-Myers Squibb Animal Use and Care Committee. Mice and rats were housed with a 6:00 AM to 6:00 PM light/dark cycle and allowed free access to food and water. For 3xTg mice, BMS-869780 was dosed in three-month-old females by oral gavage at 6 mL/kg in vehicle consisting of 84% polyethylene glycol average molecular weight of 400 (PEG-400), 15% EtOH, and 1% Tween-80 (w/w/w). The compound was dissolved in EtOH and then diluted with PEG-400 and Tween, after which the vial was sealed, vortexed, and sonicated at 56°C for 1 hour. Animals were euthanized by asphyxiation in CO2. Blood was collected by cardiac puncture and placed into ethylene-diaminetetraacetic acid microtainer tubes for the preparation of plasma. The cerebellum was collected for the determination of compound concentration, and the remaining brain was separated into left and right halves before freezing in liquid nitrogen. For the rat time course study, 8- to 12-week-old female Sprague-Dawley rats were obtained from Charles River Laboratories (Wilmington, MA), BMS-869780 was dosed orally at 4 mL/kg, and brain and plasma samples were collected as described for the 3xTg mice. For the four day repeat dose rat study, BMS-869780 was given by oral gavage in vehicle consisting of PEG-400, PEG-200, D-α-tocopheryl polyethylene glycol succinate, Solutol HS 15, in the ratio 80 : 10 : 5 : 5 (w/w/w/w). Methods for the pharmacokinetics studies in rat, dog, and monkey are described below.
# [1] = averaged across depleted samples in both dose groups
# [2] = four daily doses, 10 and 100 mg/kg, 5 hours after last dose
structure (smiles),measurement,setting,value
COc1cc(Nc2nc3n(n2)CCCC[C@H]3c2ccc(F)cc2)ccc1-n1cnc(Cl)c1 [BMS-869780],residual signal for Aβ1-40 after immunodepletion,[1],4%
same,residual signal for Aβ1-42 after immunodepletion,[1],16%
same,residual pool of Aβ1-40,four daily doses,~7%
same,residual pool of Aβ1-42,four daily doses,ca. 15%
same,residual ELISA signal for Aβ1-40,[2],19%
same,residual ELISA signal for Aβ1-42,[2],31%
